Reference: patent publication US20240116985A1, “STAPLED PEPTIDES AND METHODS THEREOF” (priority 2020, published 2024)
Converted amounts (≈) assume the structure as drawn. “And” between values parts separate entries of the source, which are not always exact repeats. Equal entries are not always repeated. Where two headings read alike, the source gives them in different places.

Key:
[1] = target: T1, full-length B-Catenin (Uniprot ID P35222) (Homo sapiens, UniProt P35222); test: Alphascreen binding assay (beta-catenin / biotin-TCF4 10-53)
T1 construct: 65 nM full-length B-Catenin (Uniprot ID P35222)
T1 sequence (P35222 1-781): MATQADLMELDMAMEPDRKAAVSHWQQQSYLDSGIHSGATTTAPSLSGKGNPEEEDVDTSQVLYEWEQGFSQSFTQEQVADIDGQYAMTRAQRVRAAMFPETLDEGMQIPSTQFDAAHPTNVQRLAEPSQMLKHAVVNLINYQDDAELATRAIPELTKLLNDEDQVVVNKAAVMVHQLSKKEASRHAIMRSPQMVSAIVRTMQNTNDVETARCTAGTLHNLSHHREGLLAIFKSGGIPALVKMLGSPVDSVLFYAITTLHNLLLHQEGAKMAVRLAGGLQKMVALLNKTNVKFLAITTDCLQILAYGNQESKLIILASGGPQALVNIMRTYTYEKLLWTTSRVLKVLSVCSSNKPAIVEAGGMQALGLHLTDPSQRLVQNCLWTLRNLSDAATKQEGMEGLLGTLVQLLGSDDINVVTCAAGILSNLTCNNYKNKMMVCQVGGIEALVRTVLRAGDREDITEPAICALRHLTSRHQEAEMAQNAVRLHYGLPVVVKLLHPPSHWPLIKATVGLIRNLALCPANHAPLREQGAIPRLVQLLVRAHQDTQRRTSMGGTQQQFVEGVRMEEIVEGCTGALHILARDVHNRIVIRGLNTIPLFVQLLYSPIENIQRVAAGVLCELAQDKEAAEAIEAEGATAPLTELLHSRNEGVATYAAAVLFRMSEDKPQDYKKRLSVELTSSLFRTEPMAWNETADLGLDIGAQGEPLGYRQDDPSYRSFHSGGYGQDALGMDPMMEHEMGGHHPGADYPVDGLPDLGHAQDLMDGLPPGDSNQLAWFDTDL
Protocol: In some embodiments, an assay is an Alphascreen binding assay. A useful protocol is described below as an example.
Alphascreen binding assay: Using the AlphaScreen Histidine (Nickel Chelate) Detection Kit (PerkinElmer), peptide solutions were prepared in buffer (50 mM Tris pH 8.0, 250 mM NaCl, 2% glycerol, 0.03% Tween-20, 0.01% TritonX-100, 0.1% BSA w/v) using a 3-fold serial dilution from 10 uM to 5 nM. Probe solution (65 nM full-length B-Catenin (Uniprot ID P35222), mixed with 10 nM biotin labeled TCF4 residues 10-53 (Uniprot ID Q9NQB0) peptide in buffer) was prepared and 4 uL per well was plated in a white polystyrene 384-well plate (Corning). Equal volume of the titrated peptide was added to the plate and incubated for 15 minutes at 20° C. Then 4 uL of donor and 4 uL acceptor beads at 10 ug/mL were added to the plate, for a 16 uL reaction pool and protected from light for 60 minutes at 20° C. prior to read. Reads were performed on a CLARIOstar plate reader (BMG Labtech) in duplicate, and data were fitted to a 1:1 binding model with hill slope using an in-house script. All provided concentrations are final concentrations.

CHI Log D procedure = format: physicochemical; details: for CHI Log D: pH 7.4; for chromatographic logD: pH 7.4, CHI Log D
[2] = target: T2, full-length beta-Catenin (Uniprot ID P35222) (Homo sapiens, UniProt P35222); test: Fluorescence polarization IC50 (beta-catenin / 5FAM-TCF4 10-53 competition); format: binding
T2 construct: 10 nM full-length beta-Catenin (Uniprot ID P35222)
T2 sequence (P35222 1-781): T1 sequence (P35222 1-781)

Solubility in PBS = format: physicochemical
Procedure, shortened: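 Steps: ultracentrifuge the peptide PBS solution, inject the supernatant on HPLC, inject a 50 μM peptide DMSO solution as reference, then calculate solubility as area ratio (PBS/DMSO) × 50 uM.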

[3] = target: T3, beta-catenin/TCF4 engagement (Homo sapiens, UniProt P35222); test: Nano-BRET target engagement assay (B-cat-Halo & TCF4-Luc in HEK293 cells); format: cell-based; details: read-out: NanoBRET Abs IC50
T3 construct: expressed in transfected cells; host or cells: HEK293
T3 sequence (P35222 1-781): T1 sequence (P35222 1-781)

[4] = tested on: TCF/LEF luciferase Reporter in DLD1 cells; test: TCF reporter assay (DLD1 TCF/LEF luciferase reporter, Bright-Glo); format: cell-based; details: for DLD1 TCF c2 BrightGlo % Inhibition: replicates
Procedure, shortened: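 Readouts: Bright-Glo luciferase for reporter signal and CellTiter-Glo for cell viability, with absolute IC50 derived. The reporter clone came from lentiviral TCF/LEF-luciferase transduction of DLD1 cells, seeded 5000 cells/well in RPMI with 4% FBS and exposed overnight to serially diluted compounds.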

[5] = absolute IC50, read-out: DLD1 reporter assay Abs IC50
[6] = first dose = 20 uM (plate map), 20 µM
[7] = third dose = 5 uM (plate map), 5 µM

Row | Compound | EC50 [1] | CHI Log D (CHI Log D procedure) | chromatographic logD (CHI Log D procedure) | IC50 ([2]; read-out: beta-Catenin FP IC50) | Solubility (Solubility in PBS; Solubility (uM)) | IC50 ([3]; absolute IC50) | IC50 [4, 5] | further results
1 | CC(=O)N[C@@H](Cc1ccccc1)C(=O)N[C@@H](CC(=O)O)C(=O)N[C@@H](C)C(=O)N[C@]1(C)CCCCCCC=CCOC(=O)N2CC[C@@](C(=O)N[C@@H](CC3CCCC3)C(=O)N[C@@H](Cc3c[nH]c4ccccc34)C(=O)N[C@@H](CCC(N)=O)C(N)=O)(C2)NC(=O)[C@H](C(C)C)NC(=O)[C@H](Cc2ccccc2)NC(=O)[C@H](C)NC(=O)[C@H](C)NC(=O)[C@H](CC(=O)O)NC(=O)[C@H](CC(=O)O)NC1=O (single isomer, unassigned) [I-94, Ac-Phe-Asp-Ala-R8-Asp-Asp-Ala-Ala-Phe-Val-PyrS-CypA-Trp-Gln-NH2] | 7.01 µM | 1.409 |  |  |  |  |  | 
2 | CC(=O)N[C@@H](Cc1ccccc1)C(=O)N[C@@H](CC(=O)O)C(=O)N[C@@H](C)C(=O)N[C@]1(C)CCCCCCC=CCOC(=O)N2CC[C@@](C(=O)N[C@@H](Cc3ccccc3)C(=O)N[C@@H](Cc3c[nH]c4ccccc34)C(=O)N[C@@H](CCC(N)=O)C(N)=O)(C2)NC(=O)[C@H](C(C)C)NC(=O)[C@H](Cc2ccccc2)NC(=O)[C@H](C)NC(=O)[C@H](C)NC(=O)[C@H](CCCC(=O)O)NC(=O)[C@H](CC(=O)O)NC1=O [I-6, Ac-Phe-Asp-Ala-R8-Asp-Aad-Ala-Ala-Phe-Val-PyrS-Phe-Trp-Gln-NH2] | 6.5 µM | 1.378 |  |  |  |  |  | 
3 | CC(=O)N[C@@H](Cc1ccccc1)C(=O)N[C@@H](CC(=O)O)C(=O)N[C@@H](C)C(=O)N[C@]1(C)CCCC=CCOC(=O)N(C)CCC[C@@](C)(C(=O)N[C@@H](Cc2ccccc2)C(=O)N[C@@H](Cc2c[nH]c3ccccc23)C(=O)N[C@@H](CCC(N)=O)C(N)=O)NC(=O)[C@H](C(C)C)NC(=O)[C@H](Cc2ccccc2)NC(=O)[C@H](C)NC(=O)[C@H](C)NC(=O)[C@H](CC(=O)O)NC(=O)[C@H](CC(=O)O)NC1=O [I-25, Ac-Phe-Asp-Ala-R5-Asp-Asp-Ala-Ala-Phe-Val-SeN-Phe-Trp-Gln-NH2] | 7.22 µM |  | 1.17 |  |  |  |  | 
4 | COc1ccc(C[C@@H]2NC(=O)[C@H](C)NC(=O)[C@H](C)NC(=O)[C@H](CCC(=O)O)NC(=O)[C@H](CC(=O)O)NC(=O)C3(CCCC=CCCCCCC[C@@](C)(C(=O)N[C@@H](Cc4ccccc4)C(=O)N[C@@H](Cc4c[nH]c5ccccc45)C(=O)N[C@@H](CCC(N)=O)C(N)=O)NC(=O)[C@H](C(C)C)NC2=O)CCCC=CC[C@]2(CCCN2C(C)=O)C(=O)N[C@@H](CC(=O)O)C(=O)N[C@@H](C)C(=O)N3)cc1 (stereo partly drawn) [I-218, Ac-PL3-Asp-Ala-B5-Asp-Glu-Ala-Ala-MeTyr-Val-S8-Phe-Trp-Gln-NH2] | 0.09 µM |  |  |  |  |  |  | 
5 | CC(=O)N1CCC[C@]12CC=CCCCC1(CCCC=CCCCOC(=O)N3CC[C@@](C(=O)N[C@@H](Cc4ccccc4Cl)C(=O)N[C@@H](Cc4csc5ccccc45)C(=O)N[C@@H](C)CO)(C3)NC(=O)[C@H](CC(N)=O)NC(=O)[C@H](Cc3ccccc3)NC(=O)[C@H](C)NC(=O)[C@H](C)NC(=O)[C@H](CC(=O)O)NC(=O)[C@H](CC(=O)O)NC1=O)NC(=O)[C@H](CC(C)(C)C)NC(=O)[C@H](CC(=O)O)NC2=O (stereo partly drawn) [I-1081, Ac-PL3-Asp-Npg-B5-Asp-Asp-Ala-Ala-Phe-Asn-PyrS2-2C1F-BztA-Alao1] |  |  | 2.4 | 0.005 µM | 43 µM (≈ 80.7 µg/mL) | 16.7 µM | 10 µM | DLD1 TCF c2 BrightGlo % Inhibition [4, 6]: 67.2% and 69.3% and 72.3%; IC50 ([4]; read-out: DLD1 4% Abs IC50, DLD1 4%): 10.6 µM; DLD1 TCF c2 BrightGlo % Inhibition ([4]; 0.625 µM): 9.2% and 7.1% and 11.5%; DLD1 TCF c2 BrightGlo % Inhibition ([4]; 1.25 µM): 0.8% and 2.4% and 5.4%; DLD1 TCF c2 BrightGlo % Inhibition ([4]; 2.5 µM): 4.5% and 7.9% and 15.2%; DLD1 TCF c2 BrightGlo % Inhibition ([4]; 10 µM): 45.6% and 49.8% and 55.3%; DLD1 TCF c2 BrightGlo % Inhibition [4, 7]: 17.5% and 23.8% and 31.0%
6 | CC(=O)N1CCC[C@]12CC=CCCCC1(CCCC=CCCCOC(=O)N3CC[C@@](C(=O)N[C@@H](Cc4ccccc4Cl)C(=O)N[C@@H](Cc4csc5ccccc45)C(=O)N[C@H](CO)[C@@H](C)O)(C3)NC(=O)[C@H](CC(N)=O)NC(=O)[C@H](Cc3ccccc3)NC(=O)[C@H](C)NC(=O)[C@H](C)NC(=O)[C@H](CC(=O)O)NC(=O)[C@H](CC(=O)O)NC1=O)NC(=O)[C@H](CC(C)(C)C)NC(=O)[C@H](CC(=O)O)NC2=O (stereo partly drawn) [I-1082, Ac-PL3-Asp-Npg-B5-Asp-Asp-Ala-Ala-Phe-Asn-PyrS2-2C1F-BztA-Thro1] |  |  | 2.33 | 0.005 µM | 48 µM (≈ 91.5 µg/mL) | 14.1 µM | 4.8 µM | DLD1 TCF c2 BrightGlo % Inhibition [4, 6]: 76.5% and 77.1% and 79.9%; DLD1 TCF c2 BrightGlo % Inhibition ([4]; 0.625 µM): 14.1% and 17.4% and 20.3%; DLD1 TCF c2 BrightGlo % Inhibition ([4]; 1.25 µM): 14.0% and 21.5% and 24.0%; DLD1 TCF c2 BrightGlo % Inhibition ([4]; 2.5 µM): 17.3% and 36.1% and 37.9%; DLD1 TCF c2 BrightGlo % Inhibition ([4]; 10 µM): 63.9% and 71.0% and 75.0%; DLD1 TCF c2 BrightGlo % Inhibition [4, 7]: 38.5% and 56.2% and 62.0%
7 | CC(=O)N1CCC[C@]12CC=CCCCC1(CCCC=CCCCCCC[C@@](C)(C(=O)N[C@@H](Cc3ccccc3Cl)C(=O)N[C@@H](Cc3csc4ccccc34)C(=O)N[C@@H](CCC(N)=O)C(N)=O)NC(=O)[C@H]([C@@H](C)O)NC(=O)[C@H](Cc3ccccc3)NC(=O)[C@H](C)NC(=O)[C@H](C)NC(=O)[C@H](CC(=O)O)NC(=O)[C@H](CC(=O)O)NC1=O)NC(=O)[C@H](CC(C)(C)C)NC(=O)[C@H](CC(=O)O)NC2=O (stereo partly drawn) [I-1087, Ac-PL3-Asp-Npg-B5-Asp-Asp-Ala-Ala-Phe-Thr-S8-2C1F-BztA-Gln-NH2] |  | 2.766 |  | 0.009 µM |  | 9.3 µM | > 20 µM | IC50 ([2]; fluorescence polarization, beta-catenin, read-out: FP EC50): 0.009 µM; Solubility (Solubility in PBS): 44 µM (≈ 83.2 µg/mL); IC50 [3]: 9.3 µM
8 | CC(=O)N1CCC[C@]12CC=CCCCC1(CCCC=CCCCCCC[C@@](C)(C(=O)N[C@@H](Cc3ccccc3Cl)C(=O)N[C@@H](Cc3csc4ccccc34)C(=O)N[C@@H](C(N)=O)[C@H](C)O)NC(=O)[C@H](CC(C)C)NC(=O)[C@H](Cc3ccccc3)NC(=O)[C@H](C)NC(=O)[C@H](C)NC(=O)[C@H](CC(=O)O)NC(=O)[C@H](CC(=O)O)NC1=O)NC(=O)[C@H](CC(C)(C)C)NC(=O)[C@H](CC(=O)O)NC2=O (stereo partly drawn) [I-1097, Ac-PL3-Asp-Npg-B5-Asp-Asp-Ala-Ala-Phe-Leu-S8-2C1F-BztA-dThr-NH2] |  |  | 3.61 | 0.04 µM | 20 µM (≈ 37.5 µg/mL) | > 20 µM | > 20 µM | 
